In brackets after ≈: the same amount, converted by molar mass. Activity calls are given as the source filed them. The calls are words filed in the database; no cut-off is given here.
How the values were obtained:
BEAS-2B = assay: Cytotoxicity against human BEAS2B cells after 24 hrs by resazurin based assay; type: cell-based
Candida albicans [1] = assay: Antifungal activity against fluconazole/ITC-resistant Candida albicans ATCC 64124 measured after 48 hrs by CLSI M27-A3 protocol based method; type: functional; conditions: ATCC 64124, 48 h
[2] = Hemolytic activity in mouse RBC at 31.3 ug/ml after 1 hr relative to control; type: ADME, cell-based, Erythrocyte; conditions: red blood cells (erythrocytes), read-out: Activity
Candida parapsilosis = assay: Antifungal activity against Candida parapsilosis ATCC 22019 measured after 48 hrs by CLSI M27-A3 protocol based method; type: functional; conditions: Lodderomyces parapsilosis, ATCC 22019, 48 h
[3] = Selectivity index, ratio of CC50 for human A549 cells to MIC for fluconazole/ITC-susceptible Candida albicans ATCC MYA-2310; type: toxicity; conditions: read-out: Selectivity Index
[4] = Selectivity index, ratio of compound concentration showing <20 to <25% hemolysis in mouse RBC to MIC for fluconazole/ITC-resistant Candida albicans ATCC 64124; type: toxicity; conditions: red blood cells (erythrocytes), read-out: Selectivity Index
[5] = Selectivity index, ratio of compound concentration showing <20 to <25% hemolysis in mouse RBC to MIC for Candida parapsilosis ATCC 22019; type: toxicity; conditions: red blood cells (erythrocytes), read-out: Selectivity Index
Aspergillus flavus = assay: Antifungal activity against Aspergillus flavus ATCC MYA-3631 measured after 48 hrs by CLSI M38-A2 protocol based method; type: functional; conditions: ATCC MYA-3631, 48 h
[6] = Hemolytic activity in mouse RBC at […] after 1 hr relative to control; type: ADME, cell-based, Erythrocyte; conditions: red blood cells (erythrocytes), read-out: Activity; further: tested at 0.48 µg/mL
Pichia kudriavzevii = assay: Antifungal activity against Candida krusei ATCC 6258 measured after 48 hrs by CLSI M27-A3 protocol based method; type: functional; conditions: ATCC 6258, 48 h
Candida albicans [7] = assay: Antifungal activity against fluconazole/ITC-resistant Candida albicans ATCC MYA-1003 measured after 48 hrs by CLSI M27-A3 protocol based method; type: functional; conditions: ATCC MYA-1003, 48 h
[8] = Selectivity index, ratio of CC50 for human A549 cells to MIC for fluconazole/ITC-resistant Candida albicans ATCC 10231; type: toxicity; conditions: read-out: Selectivity Index
Candida albicans [9] = assay: Antifungal activity against fluconazole/ITC-susceptible Candida albicans ATCC MYA-2876 measured after 48 hrs by CLSI M27-A3 protocol based method; type: functional; conditions: ATCC MYA-2876, 48 h
[10] = Hemolytic activity in mouse RBC at 62.5 ug/ml after 1 hr relative to control; type: ADME, cell-based, Erythrocyte; conditions: red blood cells (erythrocytes), read-out: Activity
[11] = Selectivity index, ratio of compound concentration showing <20 to <25% hemolysis in mouse RBC to MIC for Candida krusei ATCC 6258; type: toxicity; conditions: red blood cells (erythrocytes), read-out: Selectivity Index
[12] = Selectivity index, ratio of compound concentration showing <20 to <25% hemolysis in mouse RBC to MIC for Aspergillus terreus ATCC MYA-3633; type: toxicity; conditions: red blood cells (erythrocytes), read-out: Selectivity Index
[13] = Hemolytic activity in mouse RBC at 7.8 ug/ml after 1 hr relative to control; type: ADME, cell-based, Erythrocyte; conditions: red blood cells (erythrocytes), read-out: Activity
Enterococcus = assay: Antibacterial activity against vancomycin-resistant Enterococcus; type: functional, organism-based
[14] = Selectivity index, ratio of CC50 for human A549 cells to MIC for fluconazole/ITC-resistant Candida albicans ATCC 64124; type: toxicity; conditions: read-out: Selectivity Index
Candida albicans [15] = assay: Antifungal activity against fluconazole/ITC-resistant Candida albicans ATCC MYA-1237 measured after 48 hrs by CLSI M27-A3 protocol based method; type: functional; conditions: ATCC MYA-1237, 48 h
[16] = Hemolytic activity in mouse RBC at […] ug/ml after 1 hr relative to control; type: ADME, cell-based, Erythrocyte; conditions: red blood cells (erythrocytes), read-out: Activity
[17] = Selectivity index, ratio of CC50 for human A549 cells to MIC for fluconazole/ITC-resistant Candida albicans ATCC MYA-1237; type: toxicity; conditions: read-out: Selectivity Index
[18] = Selectivity index, ratio of CC50 for human A549 cells to MIC for fluconazole/ITC-resistant Candida albicans ATCC 90819; type: toxicity; conditions: read-out: Selectivity Index
[19] = Selectivity index, ratio of compound concentration showing <20 to <25% hemolysis in mouse RBC to MIC for fluconazole/ITC-resistant Candida albicans ATCC MYA-1003; type: toxicity; conditions: red blood cells (erythrocytes), read-out: Selectivity Index
[20] = Selectivity index, ratio of compound concentration showing <20 to <25% hemolysis in mouse RBC to MIC for Aspergillus flavus ATCC MYA-3631; type: toxicity; conditions: red blood cells (erythrocytes), read-out: Selectivity Index
[21] = Hemolytic activity in mouse RBC at 1.95 ug/ml after 1 hr relative to control; type: ADME, cell-based, Erythrocyte; conditions: red blood cells (erythrocytes), read-out: Activity
Staphylococcus aureus = assay: Antibacterial activity against methicillin-resistant Staphylococcus aureus; type: functional, organism-based
[22] = Hemolytic activity in mouse RBC at 3.9 ug/ml after 1 hr relative to control; type: ADME, cell-based, Erythrocyte; conditions: red blood cells (erythrocytes), read-out: Activity
[23] = Selectivity index, ratio of compound concentration showing <20 to <25% hemolysis in mouse RBC to MIC for Candida glabrata ATCC 2001; type: toxicity; conditions: red blood cells (erythrocytes), read-out: Selectivity Index
Candida albicans [24] = assay: Antifungal activity against fluconazole/ITC-susceptible Candida albicans ATCC MYA-2310 measured after 48 hrs by CLSI M27-A3 protocol based method; type: functional; conditions: ATCC MYA-2310, 48 h
[25] = Selectivity index, ratio of CC50 for human A549 cells to MIC for Aspergillus flavus ATCC MYA-3631; type: toxicity; conditions: read-out: Selectivity Index
Candida albicans [26] = assay: Antifungal activity against fluconazole/ITC-resistant Candida albicans ATCC 10231 measured after 48 hrs by CLSI M27-A3 protocol based method; type: functional; conditions: ATCC 10231, 48 h
[27] = Selectivity index, ratio of CC50 for human A549 cells to MIC for fluconazole/ITC-resistant Candida albicans ATCC MYA-1003; type: toxicity; conditions: read-out: Selectivity Index
[28] = Selectivity index, ratio of compound concentration showing <20 to <25% hemolysis in mouse RBC to MIC for Aspergillus nidulans ATCC 38163; type: toxicity; conditions: red blood cells (erythrocytes), read-out: Selectivity Index
[29] = Selectivity index, ratio of CC50 for human A549 cells to MIC for Candida parapsilosis ATCC 22019; type: toxicity; conditions: read-out: Selectivity Index
Nakaseomyces glabratus = assay: Antifungal activity against Candida glabrata ATCC 2001 measured after 48 hrs by CLSI M27-A3 protocol based method; type: functional; conditions: CBS 138, 48 h
[30] = Selectivity index, ratio of CC50 for human A549 cells to MIC for Aspergillus terreus ATCC MYA-3633; type: toxicity; conditions: read-out: Selectivity Index
[31] = Selectivity index, ratio of compound concentration showing <20 to <25% hemolysis in mouse RBC to MIC for fluconazole/ITC-susceptible Candida albicans ATCC MYA-2310; type: toxicity; conditions: red blood cells (erythrocytes), read-out: Selectivity Index
Aspergillus nidulans = assay: Antifungal activity against Aspergillus nidulans ATCC 38163 measured after 48 hrs by CLSI M38-A2 protocol based method; type: functional; conditions: ATCC 38163, 48 h
[32] = Selectivity index, ratio of compound concentration showing <20 to <25% hemolysis in mouse RBC to MIC for fluconazole/ITC-resistant Candida albicans ATCC 10231; type: toxicity; conditions: red blood cells (erythrocytes), read-out: Selectivity Index
[33] = Selectivity index, ratio of CC50 for human A549 cells to MIC for Aspergillus nidulans ATCC 38163; type: toxicity; conditions: read-out: Selectivity Index
[34] = Selectivity index, ratio of CC50 for human A549 cells to MIC for fluconazole/ITC-susceptible Candida albicans ATCC MYA-2876; type: toxicity; conditions: read-out: Selectivity Index
[35] = Selectivity index, ratio of CC50 for human A549 cells to MIC for Candida glabrata ATCC 2001; type: toxicity; conditions: read-out: Selectivity Index
Listeria monocytogenes = assay: Antibacterial activity against Listeria monocytogenes; type: functional, organism-based
Aspergillus terreus = assay: Antifungal activity against Aspergillus terreus ATCC MYA-3633 measured after 48 hrs by CLSI M38-A2 protocol based method; type: functional; conditions: ATCC MYA-3633, 48 h
[36] = Selectivity index, ratio of CC50 for human A549 cells to MIC for Candida krusei ATCC 6258; type: toxicity; conditions: read-out: Selectivity Index
Candida albicans [37] = assay: Antifungal activity against fluconazole/ITC-resistant Candida albicans ATCC 90819 measured after 48 hrs by CLSI M27-A3 protocol based method; type: functional; conditions: ATCC 90819, 48 h
[38] = Selectivity index, ratio of compound concentration showing <20 to <25% hemolysis in mouse RBC to MIC for fluconazole/ITC-resistant Candida albicans ATCC MYA-1237; type: toxicity; conditions: red blood cells (erythrocytes), read-out: Selectivity Index
[39] = Selectivity index, ratio of compound concentration showing <20 to <25% hemolysis in mouse RBC to MIC for fluconazole/ITC-resistant Candida albicans ATCC 90819; type: toxicity; conditions: red blood cells (erythrocytes), read-out: Selectivity Index
A549 = assay: Cytotoxicity against human A549 cells after 24 hrs by resazurin based assay; type: cell-based; conditions: a549, 24 h
[40] = Selectivity index, ratio of compound concentration showing <20 to <25% hemolysis in mouse RBC to MIC for fluconazole/ITC-susceptible Candida albicans ATCC MYA-2876; type: toxicity; conditions: red blood cells (erythrocytes), read-out: Selectivity Index

## C(=N\Nc1ccccc1)/c1ccc(-c2cccc(/C=N/Nc3ccccc3)c2)cc1
BEAS-2B
  CC50: > 31 µg/mL
Candida albicans [1]
  MIC: 31.3 µg/mL (≈ 80.2 µM)
[2]
  hemolysis at 1 h, 31.3 ug/ml: 16.7%
Candida parapsilosis
  MIC: > 31.3 µg/mL
[3]
  selectivity ratio: 1
[4]
  selectivity ratio: 1 to 32
[5]
  selectivity ratio: 1 to 32
Aspergillus flavus
  MIC: 3.9 µg/mL (≈ 9.99 µM)
[6]
  hemolysis at 1 h, […]: 0%
Pichia kudriavzevii
  MIC: 7.8 µg/mL (≈ 20 µM)
Candida albicans [7]
  MIC: 3.9 µg/mL (≈ 9.99 µM)
[8]
  selectivity ratio: 16
Candida albicans [9]
  MIC: 31.3 µg/mL (≈ 80.2 µM)
[10]
  hemolysis at 1 h, 62.5 ug/ml: 23.6%
[11]
  selectivity ratio: 1 to 32
[12]
  selectivity ratio: 1 to 32
[13]
  hemolysis at 1 h, 7.8 ug/ml: 8.5%
Enterococcus
  Activity: inactive
[14]
  selectivity ratio: 1
Candida albicans [15]
  MIC: 31.3 µg/mL (≈ 80.2 µM)
[16]; at 15.6 µg/mL
  hemolysis at 1 h, 15.6 ug/ml: 14.1%
[16]
  hemolysis at 1 h, 0.975 ug/ml: 0%
[17]
  selectivity ratio: 1
[18]
  selectivity ratio: 1
[19]
  selectivity ratio: 1 to 32
[20]
  selectivity ratio: 1 to 32
[21]
  hemolysis at 1 h, 1.95 ug/ml: 3.5%
Staphylococcus aureus
  Activity: inactive
[22]
  hemolysis at 1 h, 3.9 ug/ml: 1.5%
[23]
  selectivity ratio: 1 to 32
Candida albicans [24]
  MIC: 31.3 µg/mL (≈ 80.2 µM)
[25]
  selectivity ratio: 8
Candida albicans [26]
  MIC: 1.95 µg/mL (≈ 4.99 µM)
[27]
  selectivity ratio: 4
[28]
  selectivity ratio: 1 to 32
[29]
  selectivity ratio: 1
Nakaseomyces glabratus
  MIC: > 31.3 µg/mL
[30]
  selectivity ratio: 2
[31]
  selectivity ratio: 1 to 32
Aspergillus nidulans
  MIC: 1.95 µg/mL (≈ 4.99 µM)
[32]
  selectivity ratio: 1 to 32
[33]
  selectivity ratio: 16
[34]
  selectivity ratio: 1
[35]
  selectivity ratio: 1
Listeria monocytogenes
  Activity: inactive
Aspergillus terreus
  MIC: 15.6 µg/mL (≈ 39.9 µM)
[36]
  selectivity ratio: 4
Candida albicans [37]
  MIC: 31.3 µg/mL (≈ 80.2 µM)
[38]
  selectivity ratio: 1 to 32
[39]
  selectivity ratio: 1 to 32
A549
  CC50: > 31 µg/mL
[40]
  selectivity ratio: 1 to 32

From ChEMBL document CHEMBL4411307, “N,N'-diaryl-bishydrazones in a biphenyl platform: Broad spectrum antifungal agents” (Eur J Med Chem, 2019)
